4 molecules from US12209140B2, “Therapeutics for the treatment of glaucoma” (Mayo Foundation for Medical Education and Research, priority 2014, dated 2025) can be followed below.

Experiment [1] has as its system eyes. Put plainly: activity in vivo in eyes. From the text: The enantiomer of CKLP1 is referred to as “ent-CKLP1”. CKLP1 can be synthesized from levcromakalim while ent-CKLP1 can be synthesized from (+)-cromakalim.
Experiment [2] has as its system normotensive C57BL/6 mice. Put plainly: intraocular pressure change in normotensive mice after treatment. The class given is in vivo, mouse. The following applies: for IOP lowering in the presence of Erk1/2 inhibitor U0126: mice (n=10), CKLP1+LFA+U0126; for combination treatment in mice with CKL/CKLP1 and prostaglandin analog LFA (FIG. 2 values, pressure change): alone or combined with latanoprost free acid, additive effects. The method, then: FIG. 1B is a graph of the change in C57BL/6 mice intraocular pressure following treatment with cromakalim in DMSO or CKLP1 in aqueous carrier. FIG. 2 is a graph of the combination treatment in mice with […]1 and prostaglandin showing additive effects. CKL: -12.77±2.38, […]1: -16.11±2.61, CKLP1+LFA: -26.06±2.98. FIG. 1A is a graph of pressure readings obtained from a pair of human anterior eye segments where one eye was treated with a KATP channel opener prodrug (CKLP1) while the fellow anterior segment was treated with vehicle alone. […] FIG. 1B is a graph of pressure change obtained in normotensive C57BL/6 mice following treatment with parent (CKL) and prodrug (CKLP1). […] FIG. 3 is a graph showing the treatment with various forms of CKL. FIG. 4 is a graph showing the treatment of rabbits (n=5) with CKL-P1 in PBS, optically active isomer. FIG. 5 is a graph showing the treatment with ent-CKLP1(5 mM).

In experiment [3] the test system is rabbits. Put plainly: treatment of rabbits (intraocular pressure model). Type of experiment: in vivo. The method, then:
FIG. 4 is a graph showing the treatment of rabbits with CKL-P1 in PBS, optically active isomer. FIG. 3 is a graph showing the treatment with various forms of CKL. FIG. 4 is a graph showing the treatment of rabbits (n=5) with CKL-P1 in PBS, optically active isomer. FIG. 5 is a graph showing the treatment with ent-CKLP1(5 mM).

The test system of experiment [4] is human anterior eye segments. Put plainly: human anterior segment perfusion organ culture (ex vivo human eye), pressure readings. The method, then: FIG. 1A is a graph of pressure readings obtained from a pair of human anterior eye segments where one eye was treated with a KATP channel opener prodrug (CKLP1) while the fellow anterior segment was treated with vehicle alone. […] FIG. 1B is a graph of pressure change obtained in normotensive C57BL/6 mice following treatment with parent (CKL) and prodrug (CKLP1).

Experiment [5] has as its system rat cortical neurons. The experiment is described as follows: H2O2 oxidative stress in rat cortical neurons, lactate dehydrogenase assayed. Type of experiment: cell-based. The following applies: 75 μM H2O2 for 24 hours with and without CKLP1. From the text:
The present invention also provides a CKLP1 composition used to treat neurons; a CKLP1 composition used for neuroprotection; a method of neuroprotection using a CKLP1 composition; a method of treating neurons using a CKLP1 composition; and methods and compositions for the treatment of ocular hypertension, blindness and loss of vision using a CKLP1 composition. The claimed CKLP1 composition provides neuroprotective properties. […] Therefore, CKLP1 and other prodrugs (as disclosed herein) may represent the first in class treatment for glaucoma that can treat the main risk factor (elevated intraocular pressure) and also the sight of damage (optic nerve).

“Also recorded” adds a separate entry of the source.

As for `CC1(C)Oc2ccc(C#N)cc2[C@H](N2CCCC2=O)[C@H]1OP(=O)(O)O` [ent-CKLP1], in experiment [1], the “activity in vivo in eyes” value is listed as “active”.
Take `O=C(O)CCC/C=C\C[C@@H]1[C@@H](CC[C@@H](O)CCc2ccccc2)[C@H](O)C[C@@H]1O` [LFA, latanoprost free acid, reference compound]: in experiment [2], the “IOP lowering in the presence of Erk1/2 inhibitor U0126” value was “can lower IOP”.
With `CC1(C)Oc2ccc(C#N)cc2C(N2CCCC2=O)C1O` (centres unmarked) [CKL, cromakalim, reference compound], in experiment [2], the “combination treatment in mice with CKL/CKLP1 and prostaglandin analog LFA (FIG. 2 values, pressure change)” value was −12.77±2.38.
On to `CC1(C)Oc2ccc(C#N)cc2[C@@H](N2CCCC2=O)[C@@H]1OP(=O)(O)O` [CKLP1], for which, in experiment [3], the “activity in rabbit model” value is “good activity”. In experiment [4] (CKLP1 2 μM, fellow anterior segment treated with vehicle alone), the “pressure in human anterior segment perfusion organ culture” value is “reduction of pressure; also recorded: reduces pressure”. Also, the “activity in ex vivo human eyeball model” value in experiment [4] (ex vivo human eyeball) was “good activity”. Besides, the “H2O2 oxidative stress (lactate dehydrogenase levels)” value in experiment [5] is listed as “inhibited H2O2 oxidative stress”. Moreover, in experiment [2], the “IOP lowering in the presence of Erk1/2 inhibitor U0126” value is recorded as “not able to lower pressure”; the “combination treatment in mice with CKL/CKLP1 and prostaglandin analog LFA (FIG. 2 values, pressure change)” value is −16.11±2.61. Besides, in experiment [2] (mouse), the “biological activity in normotensive mouse model” value is “good activity”. Further, the “activity in vivo in eyes” value in experiment [1] is “active”.
